# Test results published in patent publication EP1611112B1, “ISOXAZOLE COMPOUNDS AS INHIBITORS OF HEAT SHOCK PROTEINS” (Vernalis (Cambridge) Limited, priority 2003, dated 2004).
# pIC50: −log10 of the molar value.
# Target: T1, human full-length HSP90 (Homo sapiens, UniProt P08238)
# T1 construct: E. coli expressed human full-length HSP90 protein; made in house; host or cells: E. coli
# Assay: Fluorescence Polarisation Assay (displacement of fluorescein-labelled probe RBT0045864-FAM)
# Format: binding
# Settings: Fluorescence Polarisation Assay, activity range
# Description: A Fluorescence Polarization_assay was also employed for the evaluation of some of the compounds of the Examples:
# Fluorescence polarization {also known as fluorescence anisotropy} measures the rotation of a fluorescing species in solution, where the larger molecule the more polarized the fluorescence emission.
# When the fluorophore is excited with polarized light, the emitted light is also polarized. The molecular size is proportional to the polarization of the fluorescence emission.
# Test compound is added to the assay plate, left to equilibrate and the anisotropy measured again. Any change in anisotropy is due to competitive binding of compound to HSP90, thereby releasing probe.
# Stored at room temperature. • 3) BSA (bovine serum albumen) 10 mg/ml (New England Biolabs # B9001S) • 4) 20 mM probe in 100 % DMSO stock concentration. Stored in the dark at RT. Working concentration is 200 nM diluted in AR water and stored at 4 °C.
# 1) Add 100µl 1x buffer to wells 11A and 12A (=FP BLNK) 2) Prepare assay mix - all reagents are kept on ice with a lid on the bucket as the probe is light-sensitive.
# This gives 2.5 mM {50x} stock cpd - assuming cpds 20 mM. • 4) Repeat for wells A2 to A10. Control in columns 11 and 12. • 5) Transfer 5 µl from row A to row B- not column 12. Mix well. • 6) Transfer 5 µl from row B to row C. […] Add 2 µl of 100mM standard cpd to wells B12 - H12 {is positive control } • 13)The Z' factor is calculated from zero controls and positive wells.
# T1 sequence (P08238 whole entry): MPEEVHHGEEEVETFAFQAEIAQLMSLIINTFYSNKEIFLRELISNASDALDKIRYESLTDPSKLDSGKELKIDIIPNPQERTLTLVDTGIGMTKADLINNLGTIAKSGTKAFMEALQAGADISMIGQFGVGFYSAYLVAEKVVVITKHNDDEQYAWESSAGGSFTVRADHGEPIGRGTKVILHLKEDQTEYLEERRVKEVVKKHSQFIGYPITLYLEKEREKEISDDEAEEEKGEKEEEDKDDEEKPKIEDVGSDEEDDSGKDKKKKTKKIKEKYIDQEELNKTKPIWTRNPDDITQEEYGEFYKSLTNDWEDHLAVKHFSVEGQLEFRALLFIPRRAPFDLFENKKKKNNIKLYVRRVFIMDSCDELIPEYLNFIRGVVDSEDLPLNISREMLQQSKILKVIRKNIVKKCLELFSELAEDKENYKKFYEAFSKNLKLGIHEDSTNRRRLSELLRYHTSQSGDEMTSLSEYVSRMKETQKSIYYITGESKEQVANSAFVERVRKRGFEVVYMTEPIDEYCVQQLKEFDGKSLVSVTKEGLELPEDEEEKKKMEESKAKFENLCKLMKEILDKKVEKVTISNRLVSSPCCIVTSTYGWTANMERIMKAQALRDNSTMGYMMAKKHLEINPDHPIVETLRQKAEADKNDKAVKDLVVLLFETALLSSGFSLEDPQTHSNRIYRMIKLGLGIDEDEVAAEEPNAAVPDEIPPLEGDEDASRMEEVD
row,pIC50,SMILES
1,> 5.00,CCNC(=O)c1noc(-c2cc(-c3ccccc3)c(O)cc2O)c1-c1ccc(CN2CCOCC2)cc1 [Example 74]
2,> 5.00,CCNC(=O)c1noc(-c2cc(Cl)c(O)cc2O)c1-c1cccc(CN2CCN(C(C)=O)CC2)c1 [Example 62]
3,> 5.00,CCNC(=O)c1noc(-c2cc(Cl)c(O)cc2O)c1-c1cccc(C(C)N2CCOCC2)c1 (stereo not drawn) [Example 44]
4,> 5.00,CCNC(=O)c1noc(-c2cc(Cl)c(O)cc2O)c1-c1ccc(CN2CCCCC2)c2ccccc12 [Example 41r]
5,> 5.00,"CCNC(=O)c1noc(-c2cc(Cl)c(O)cc2O)c1-c1cccc(N2CCN(C)CC2)c1 [Example 31, 5-(5-Chloro-2,4-dihydroxy-phenyl)-4-[3-(4-methyl-piperazin-1-yl)-phenyl]-isoxazole-3-carboxylic acid ethylamide]"
6,> 5.00,"COc1ccc(-c2c(-c3cc(Br)c(O)cc3O)noc2C)cc1 [Example 76, 4-Bromo-6-[4-(4-methoxy-phenyl)-5-methyl-isoxazol-3-yl]-benzene-1,3-diol]"
7,> 5.00,CCNC(=O)c1noc(-c2cc(Cl)c(O)cc2O)c1-c1ccc(CN2CCOCC2)c(F)c1 [Example 41g]
8,> 5.00,CCNC(=O)c1noc(-c2cc(Cl)c(O)cc2O)c1-c1ccc(OCCN(CC)CC)cc1 [Example 41q]
9,> 5.00,CCNC(=O)c1noc(-c2cc(Cl)c(O)cc2O)c1-c1ccc(CNCCS(C)(=O)=O)cc1 [Example 37]
10,> 5.00,CCNC(=O)c1noc(-c2cc(Cl)c(O)cc2O)c1-c1ccc(C(C)N2CCOCC2)cc1 (stereo not drawn) [Example 42]
11,> 5.00,CCNC(=O)c1noc(-c2cc(-c3ccc(F)cc3)c(O)cc2O)c1-c1ccc(F)cc1 [Example 71]
12,> 5.00,"CCNC(=O)c1noc(-c2cc(Cl)c(O)cc2O)c1-c1ccc(OC)cc1 [Example 25, 5-(5-chloro-2,4-dihydroxyphenyl)-4-(4-methoxy-phenyl)-isoxazole-3-carboxylic acid ethylamide]"
13,> 5.00,CCNC(=O)c1noc(-c2cc(-c3ccc(F)cc3)c(O)cc2O)c1-c1ccc(CN2CCOCC2)cc1 [Example 73]
14,> 5.00,CCNC(=O)c1noc(-c2cc(CC)c(O)cc2O)c1-c1ccc(CN2CCOCC2)cc1 [Example 55]
15,> 5.00,CCNC(=O)c1noc(-c2cc(Cl)c(O)cc2O)c1-c1ccc(CN(CC)CC)cc1 [Example 49]
16,> 5.00,CCNC(=O)c1noc(-c2cc(Cl)c(O)cc2O)c1-c1ccc(CN(C)C)cc1 [Example 59]
17,> 5.00,CC(C)NC(=O)c1noc(-c2cc(Cl)c(O)cc2O)c1-c1ccc(CN2CCCCC2)cc1 [Example 41p]
18,> 5.00,CCNC(=O)c1noc(-c2cc(Cl)c(O)cc2O)c1-c1ccc(CN2CCC(CO)CC2)cc1 [Example 50]
19,> 5.00,"Cc1noc(-c2cc(Cl)c(O)cc2O)c1-c1cccc(CN2CCOCC2)c1 [Example 28, 4-Chloro-6-[3-methyl-4-(3-morpholin-4-ylmethyl-phenyl)-isoxazol-5-yl]-benzene-1,3-diol]"
20,> 5.00,"CCNC(=O)c1noc(-c2cc(Cl)c(O)cc2O)c1-c1ccc(CN2CCOCC2)cc1 [Example 41, 5-(5-Chloro-2,4-dihydroxy-phenyl)-4-(4-morpholin-4-ylmethyl-phenyl)-isoxazole-3-carboxylic acid ethylamide]"
21,> 5.00,CCNC(=O)c1noc(-c2cc(Cl)c(O)cc2O)c1-c1cccc(CN2CCOCC2)c1 [Example 45]
22,> 5.00,CCNC(=O)c1noc(-c2cc(Cl)c(O)cc2O)c1-c1ccc(CN2CCC(O)CC2)cc1 [Example 53]
23,> 5.00,CCNC(=O)c1noc(-c2cc(Cl)c(O)cc2O)c1-c1ccccc1CN1CCN(C)CC1 [Example 41s]
24,> 5.00,CCNC(=O)c1noc(-c2cc(Cl)c(O)cc2O)c1-c1ccc(N2CCN(C)CC2)cc1 [Example 36]
25,> 5.00,CCNC(=O)c1noc(-c2cc(Cl)c(O)cc2O)c1-c1ccc(F)cc1F [Example 41e]
26,> 5.00,CCNC(=O)c1noc(-c2cc(Cl)c(O)cc2O)c1-c1ccc2ncccc2c1 [Example 33]
27,> 5.00,CCNC(=O)c1noc(-c2cc(Cl)c(O)cc2O)c1-c1ccc(CN2CCCCC2)cc1C [Example 41i]
28,> 5.00,CCNC(=O)c1noc(-c2cc(Cl)c(O)cc2O)c1-c1ccc(CN2CCC(CCO)CC2)cc1 [Example 51]
29,> 5.00,CCNC(=O)c1noc(-c2cc(Cl)c(O)cc2O)c1-c1ccc(CO)cc1 [Example 41n]

row,SMILES,pIC50
1,CNC(=O)c1noc(-c2cc(Cl)c(O)cc2O)c1-c1ccc(CN2CCCCC2)cc1 [Example 41c],> 5.00
2,"Cc1noc(-c2cc(Cl)c(O)cc2O)c1-c1cccc(CN2CCC(C(N)=O)CC2)c1 [Example 29, 1-{3-[5-(5-Chloro-2,4-dihydroxy-phenyl)-3-methyl-isoxazol-4-yl]-benzyl}-piperidine-4-carboxylic acid amide]",> 5.00
3,CCNC(=O)c1noc(-c2cc(CCc3cccc(F)c3)c(O)cc2O)c1-c1ccc(CN2CCOCC2)cc1 [Example 75],> 5.00
4,CCNC(=O)c1noc(-c2cc(CCc3ccc(F)cc3)c(O)cc2O)c1-c1ccc(CN2CCCCC2)cc1 [Example 69],> 5.00

# Same assay, conditions: Fluorescence Polarisation Assay, key in footnote of the table
row,pIC50,SMILES
1,> 5.00,COc1ccc(-c2c(C)noc2-c2cc(C#N)c(O)cc2O)cc1 [Example 12b]

# Same assay, conditions: table names no assay; parent examples tested in fluorescence polarization assay
row,SMILES,pIC50
1,CCNC(=O)c1noc(-c2cc(CCc3cccc(C)c3)c(O)cc2O)c1-c1ccc(CN2CCCCC2)cc1 [Example 75a],> 5.00
2,CCNC(=O)c1noc(-c2cc(-c3ccccc3C)c(O)cc2O)c1-c1ccc(CN2CCCCC2)cc1 [Example 75m],> 5.00
3,CCNC(=O)c1noc(-c2cc(-c3ccccc3C)c(O)cc2O)c1-c1ccc(CN(CC)CC)cc1 [Example 75t],> 5.00
4,CCNC(=O)c1noc(-c2cc(CCc3cccc(F)c3)c(O)cc2O)c1-c1ccc(CN2CCCCC2)cc1 [Example 75e],> 5.00
5,CCNC(=O)c1noc(-c2cc(-c3ccc(F)cc3)c(O)cc2O)c1-c1ccc(CN(CC)CC)cc1 [Example 75r],> 5.00
6,CCNC(=O)c1noc(-c2cc(-c3ccccc3)c(O)cc2O)c1-c1ccc(CN2CCCCC2)cc1 [Example 75b],> 5.00
7,CCNC(=O)c1noc(-c2cc(CCc3cccc(F)c3)c(O)cc2O)c1-c1ccc(CN(CC)CC)cc1 [Example 75h],> 5.00
8,CCNC(=O)c1noc(-c2cc(-c3ccccc3F)c(O)cc2O)c1-c1ccc(CN2CCOCC2)cc1 [Example 75f],> 5.00
9,CCNC(=O)c1noc(-c2cc(-c3ccccc3F)c(O)cc2O)c1-c1ccc(CN2CCCCC2)cc1 [Example 75d],> 5.00

# Now from value to molecule:
row,pIC50,SMILES
1,> 5.00,CCNC(=O)c1noc(-c2cc(C(C)C)c(O)cc2O)c1-c1ccc(CN(CC)CC)cc1 [Example 78b]
2,> 5.00,CCNC(=O)c1noc(-c2cc(-c3ccccc3)c(O)cc2O)c1-c1ccc(CN(CC)CC)cc1 [Example 75p]
3,> 5.00,CC(C)NC(=O)c1noc(-c2cc(C(C)C)c(O)cc2O)c1-c1ccc(CNC2CCCC2)cc1 [Example 78y]
4,> 5.00,CCNC(=O)c1noc(-c2cc(C(C)C)c(O)cc2O)c1-c1ccc(CNC(C)(C)C)cc1 [Example 78l]
5,> 5.00,CCNC(=O)c1noc(-c2cc(C(C)(C)C)c(O)cc2O)c1-c1ccc(CN2CCN(C)CC2)cc1 [Example 77d]
6,> 5.00,CCNC(=O)c1noc(-c2cc(C(C)C)c(O)cc2O)c1-c1ccc(CNCCOC)cc1 [Example 78m]
7,> 5.00,CC(C)NC(=O)c1noc(-c2cc(C(C)C)c(O)cc2O)c1-c1ccc(CNC(C)(C)C)cc1 [Example 78z]
8,> 5.00,CCNC(=O)c1noc(-c2cc(C(C)C)c(O)cc2O)c1-c1ccc(CNC(C)C)cc1 [Example 78e]
9,> 5.00,CCNC(=O)c1noc(-c2cc(CCc3cccc(C)c3)c(O)cc2O)c1-c1ccc(CN2CCOCC2)cc1 [Example 75c]
10,> 5.00,CCNC(=O)c1noc(-c2cc(C(C)C)c(O)cc2O)c1-c1ccc(CN2CCC(F)(F)CC2)cc1 [Example 78ac]
11,> 5.00,CCNC(=O)c1noc(-c2cc(C(C)(C)C)c(O)cc2O)c1-c1ccc(OC)cc1 [Example 77f]
12,> 5.00,CCNC(=O)c1noc(-c2cc(-c3ccc(F)cc3)c(O)cc2O)c1-c1ccc(CN2CCN(C)CC2)cc1 [Example 75q]
13,> 5.00,CCNC(=O)c1noc(-c2cc(C(C)(C)C)c(O)cc2O)c1-c1ccc(CN(CC)CC)cc1 [Example 77b]
14,> 5.00,CCNC(=O)c1onc(-c2cc(Cl)c(O)cc2O)c1-c1ccc(OC)cc1 [Example 76B]
15,> 5.00,CCNC(=O)c1noc(-c2cc(C(C)(C)C)c(O)cc2O)c1-c1ccc(CN2CCCCC2)cc1 [Example 77c]
16,> 5.00,CCNC(=O)c1noc(-c2cc(C(C)C)c(O)cc2O)c1-c1ccc(CNCCN(CC)CC)cc1 [Example 78n]
17,> 5.00,CCNC(=O)c1noc(-c2cc(C(C)C)c(O)cc2O)c1-c1ccc(CN2CCC(N)CC2)cc1 [Example 78af]
18,> 5.00,CCNC(=O)c1noc(-c2cc(C(C)(C)C)c(O)cc2O)c1-c1ccc(F)cc1 [Example 77e]
19,> 5.00,CCNC(=O)c1noc(-c2cc(C(C)C)c(O)cc2O)c1-c1ccc(CNCC(F)(F)F)cc1 [Example 78ab]
20,> 5.00,CCNC(=O)c1noc(-c2cc(-c3c(C)noc3C)c(O)cc2O)c1-c1ccc(CN2CCCCC2)cc1 [Example 75v]
